Assay results published in the supplement of paper PMC10307832.

Experiments:
Test in all cases: relative viability (nuclei count vs DMSO), 5 days (fraction); higher = more cells survive
[1] = compound: C[As](C)SC[C@H](NC(=O)CC[C@H](N)C(=O)O)C(=O)NCC(=O)O [Darinaparsin] + C[C@]1(O)C[C@@H](c2nc(-c3ccc4ccc(-c5ccccc5)nc4c3)c3c(N)nccn32)C1 [Linsitinib] (partner 1 µM)
Method in brief: (§1)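 Relative viability divides the nuclei count in treated wells by that in vehicle wells. Lung cancer cell lines were seeded in 1536-well plates, dosed by pin tool the next day, and fixed and stained after 5 days in one step with final 0.05% Triton X-100, 1% formaldehyde and 1 ug/ml Hoechst. Dosing was a single drug or a fixed anchor-drug dose plus five library-drug doses (not always all listed) in √10 steps, and values are medians of duplicate plates imaged at 4×.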

[2] = compound: CC1=C(C=C(C=C1)NC(=O)C2=CC(=CC=C2)C(C)(C)C#N)NC3=CC4=C(C=C3)N=CN(C4=O)C [AZ628] + COc1cccc2cc(-c3nc([C@H]4CC[C@H](C(=O)O)CC4)n4ncnc(N)c34)[nH]c12 [OSI-027] (partner 0.5 µM)
Method in brief: as §1

[3] = compound: C[As](C)SC[C@H](NC(=O)CC[C@H](N)C(=O)O)C(=O)NCC(=O)O [Darinaparsin] + Nc1ncn([C@H]2C[C@H](O)[C@@H](CO)O2)c(=O)n1 [Decitabine] (partner 2 µM)
Method in brief: as §1

[4] = compound: C1CC2=C(C1)C=C(C=C2)OC3=NC(=C4C(=N3)N(C=N4)CC5=CC=C(C=C5)C6=CC=CC=C6)N[C@@H](CC7=CC=CC=C7)CO [QS11] + Cc1cc(Nc2cc(N3CCN(C)CC3)nc(Sc3ccc(NC(=O)C4CC4)cc3)n2)n[nH]1 [Tozasertib] (partner 0.1 µM)
Method in brief: as §1

Row | Cell Line | relative viability ([1]; first compound 0.08 µM) | relative viability ([1]; first compound 0.8 µM) | relative viability ([1]; first compound 2.53 µM) | relative viability ([1]; first compound 8 µM) | relative viability ([2]; first compound 0.08 µM) | relative viability ([2]; first compound 0.253 µM) | relative viability ([2]; first compound 0.8 µM) | relative viability ([2]; first compound 2.53 µM) | relative viability ([2]; first compound 8 µM) | relative viability ([3]; first compound 0.08 µM) | relative viability ([3]; first compound 0.8 µM) | relative viability ([3]; first compound 8 µM) | relative viability ([4]; first compound 0.08 µM) | relative viability ([4]; first compound 0.253 µM) | relative viability ([4]; first compound 0.8 µM) | relative viability ([4]; first compound 2.53 µM) | relative viability ([4]; first compound 8 µM) | relative viability ([3]; first compound 2.53 µM)
1 | NCI-H1793 | 0.919 | 1.01 | 0.769 | 1.22 | 0.355 | 0.226 | 0.252 | 0.247 | 0.193 | 0.461 | 0.483 | 0.485 | 0.305 | 0.328 | 0.257 | 0.32 | 0.338 | 
2 | NCI-H1915 | 1.11 | 1.09 | 1.03 | 1.13 | 0.447 | 0.476 | 0.428 | 0.355 | 0.243 | 0.288 | 0.239 | 0.256 | 0.472 | 0.494 |  | 0.432 | 0.374 | 0.254
3 | NCI-H1944 | 1.14 | 1.3 | 1.23 | 1.35 | 0.439 | 0.335 | 0.331 | 0.319 | 0.301 | 0.437 | 0.466 | 0.442 | 0.258 | 0.274 |  | 0.271 | 0.24 | 0.452
4 | NCI-H1975 | 1.11 | 1.01 | 0.944 | 1.26 | 0.726 | 0.619 | 0.483 | 0.503 | 0.373 | 0.382 | 0.429 | 0.374 | 0.823 | 1.01 | 0.585 | 0.408 | 0.225 | 0.425
5 | NCI-H1993 | 0.65 | 0.7 | 0.699 | 0.695 | 0.541 | 0.578 | 0.53 | 0.594 | 0.577 | 0.626 | 0.584 | 0.586 | 0.563 | 0.573 | 0.605 | 0.669 | 0.616 | 0.608
6 | NCI-H2009 | 1.29 | 1.18 | 1.13 | 1.15 | 0.537 | 0.452 | 0.287 | 0.327 | 0.243 | 0.412 | 0.354 | 0.398 | 0.756 | 0.789 | 0.595 | 0.58 | 0.434 | 0.375
7 | NCI-H2023 | 0.7 | 0.669 | 0.604 | 0.858 | 0.369 | 0.374 | 0.329 | 0.309 | 0.234 | 0.219 | 0.219 | 0.216 | 0.381 | 0.38 | 0.276 | 0.222 | 0.219 | 0.196
8 | NCI-H2085 | 0.935 | 0.864 | 0.889 | 1.05 | 0.913 | 0.754 | 0.803 | 0.667 | 0.332 | 0.532 | 0.474 | 0.527 | 0.803 | 0.77 | 0.479 | 0.531 | 0.467 | 0.601
9 | NCI-H2087 | 1.07 | 0.997 | 1.01 | 0.94 | 0.52 | 0.335 | 0.213 | 0.274 | 0.13 | 0.322 | 0.286 | 0.282 | 0.245 | 0.225 |  | 0.243 | 0.265 | 0.28
10 | NCI-H2126 | 0.815 | 0.756 | 0.589 | 0.803 | 0.793 | 0.655 | 0.651 | 0.728 | 0.594 | 0.597 | 0.578 | 0.635 | 0.803 | 0.849 | 0.817 | 0.886 | 0.795 | 0.575
11 | NCI-H2347 | 1 | 0.942 | 0.911 | 1.03 | 0.337 | 0.377 | 0.396 | 0.339 | 0.254 | 0.667 | 0.632 | 0.697 | 0.434 | 0.523 | 0.51 | 0.436 | 0.572 | 0.733
12 | NCI-H2405 | 1.01 | 0.91 | 0.812 | 0.887 | 0.482 | 0.37 | 0.393 | 0.353 | 0.345 | 0.802 | 0.716 | 0.735 | 0.752 | 0.699 | 0.725 | 0.758 | 0.899 | 0.663
13 | NCI-H3122 | 1.1 | 1.08 | 1.08 | 1.03 | 0.559 | 0.344 | 0.287 | 0.267 | 0.16 | 0.425 | 0.437 | 0.442 | 0.45 | 0.496 |  | 0.374 | 0.201 | 0.42
14 | PC-3 [JPC-3] | 0.961 | 0.955 | 1.06 | 1.05 | 0.791 | 0.731 | 0.753 | 0.815 | 0.683 | 0.748 | 0.773 | 0.796 | 0.881 | 0.939 | 0.857 | 0.972 | 0.764 | 0.847
15 | PC-14 | 1.04 | 0.94 | 0.896 | 1.09 | 0.727 | 0.956 | 0.733 | 0.666 | 0.329 | 0.253 | 0.197 | 0.202 | 0.552 | 0.575 | 0.487 | 0.652 | 0.602 | 0.201
16 | RERF-LC-KJ | 1.03 | 0.979 | 0.876 | 0.946 | 0.53 | 0.523 | 0.528 | 0.462 | 0.458 | 0.728 | 0.68 | 0.561 | 0.521 | 0.429 | 0.42 | 0.274 | 0.274 | 0.687
17 | SK-LU-1 | 1.35 | 0.976 | 1.07 | 1.35 |  | 0.315 | 0.276 | 0.33 | 0.208 | 0.637 | 0.587 | 0.759 | 0.293 | 0.323 | 0.352 | 0.312 | 0.278 | 0.495
18 | SK-MES-1 | 1.15 | 0.99 | 0.812 | 1.25 | 0.599 | 0.593 | 0.653 | 0.572 | 0.297 | 0.358 | 0.357 | 0.388 | 1.04 | 0.906 | 0.833 | 0.905 | 0.745 | 0.34
